Source: patent US9340600B2 (Indiana University Research and Technology Corporation, priority 2012, dated 2016)
*1 amine or outer side, *2 acyl side, *3 side chain or, on linkers, in order; H or OH if unused. Where a SMILES comes first, the peptide text is derived from it. Where no end group is shown, it is not given here. Side-chain parts run from the residue outwards. [ ]: non-standard residue; d: D form. The star is where a group is joined. γGlu = O=C(O)[C@H](CCC(=O)[*:2])N[*:1]; Palmitoyl = CCCCCCCCCCCCCCCC(=O)*; Aib = CC(C)(N)C(=O)O

Experiments:
Format in all cases: cell-based
GIP receptor = target: T1, GIP receptor (Homo sapiens, UniProt P48546); test: cAMP induction, firefly luciferase-based reporter assay in HEK293 cells co-transfected with GIP receptor; details: EC50 at GIP Receptor
T1 construct: expressed in transfected cells; host or cells: HEK293
T1 sequence (P48546 22-466): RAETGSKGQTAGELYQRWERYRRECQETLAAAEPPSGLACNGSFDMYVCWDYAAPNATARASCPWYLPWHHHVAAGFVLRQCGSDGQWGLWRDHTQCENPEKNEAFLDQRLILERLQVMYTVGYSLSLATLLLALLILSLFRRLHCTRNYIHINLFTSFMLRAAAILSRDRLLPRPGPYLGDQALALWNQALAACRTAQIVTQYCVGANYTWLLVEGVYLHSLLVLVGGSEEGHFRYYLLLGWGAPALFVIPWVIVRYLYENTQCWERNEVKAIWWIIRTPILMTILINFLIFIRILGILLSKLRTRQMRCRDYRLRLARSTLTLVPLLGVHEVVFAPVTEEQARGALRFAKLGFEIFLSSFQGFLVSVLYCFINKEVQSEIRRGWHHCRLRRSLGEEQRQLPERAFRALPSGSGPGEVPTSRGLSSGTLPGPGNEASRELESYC
Source text: (§1) This example describes an exemplary method of testing the biological activity of the peptides of the present disclosures, which method involves assaying cAMP synthesis.

glucagon receptor = target: T2, glucagon receptor (Homo sapiens, UniProt P47871); test: cAMP induction, firefly luciferase-based reporter assay in HEK293 cells co-transfected with glucagon receptor; details: EC50 at Glucagon Receptor
T2 construct: expressed in transfected cells; host or cells: HEK293
T2 sequence (P47871 26-477): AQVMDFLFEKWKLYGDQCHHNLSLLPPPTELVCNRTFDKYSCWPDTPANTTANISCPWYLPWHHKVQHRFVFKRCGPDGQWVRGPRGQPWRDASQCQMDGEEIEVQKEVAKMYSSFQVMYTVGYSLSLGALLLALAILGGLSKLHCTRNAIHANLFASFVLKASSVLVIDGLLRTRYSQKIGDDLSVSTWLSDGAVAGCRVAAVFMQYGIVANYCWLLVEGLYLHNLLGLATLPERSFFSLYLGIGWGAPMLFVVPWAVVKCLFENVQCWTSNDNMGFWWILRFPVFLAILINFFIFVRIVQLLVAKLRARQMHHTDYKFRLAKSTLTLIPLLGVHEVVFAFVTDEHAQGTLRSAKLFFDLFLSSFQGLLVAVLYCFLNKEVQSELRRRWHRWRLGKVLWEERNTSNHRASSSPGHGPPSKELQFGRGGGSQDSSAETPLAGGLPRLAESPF
Source text: as §1

GLP-1 receptor = target: T3, GLP-1 receptor (Homo sapiens, UniProt P43220); test: cAMP induction, firefly luciferase-based reporter assay in HEK293 cells co-transfected with GLP-1 receptor; details: EC50 at GLP-1 Receptor
T3 construct: expressed in transfected cells; host or cells: HEK293
T3 sequence (P43220 24-463): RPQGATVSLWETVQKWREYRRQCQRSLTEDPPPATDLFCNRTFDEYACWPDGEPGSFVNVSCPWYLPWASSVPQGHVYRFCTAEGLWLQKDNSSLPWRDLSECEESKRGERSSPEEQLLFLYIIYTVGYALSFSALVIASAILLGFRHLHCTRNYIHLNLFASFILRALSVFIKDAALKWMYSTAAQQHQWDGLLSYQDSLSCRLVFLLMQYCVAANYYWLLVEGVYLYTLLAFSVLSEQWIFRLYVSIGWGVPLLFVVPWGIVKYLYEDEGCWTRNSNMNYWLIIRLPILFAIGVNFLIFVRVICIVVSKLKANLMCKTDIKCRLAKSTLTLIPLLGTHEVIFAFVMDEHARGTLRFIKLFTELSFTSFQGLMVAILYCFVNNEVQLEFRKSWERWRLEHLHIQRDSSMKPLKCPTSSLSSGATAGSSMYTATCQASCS
Source text: as §1

[1] = Table 2, analogs of SEQ ID NO: 18 varying at positions 16-21
[2] = Table 3, analogs of SEQ ID NO: 18 varying at position 3

| Compound | EC50 (GIP receptor; [1]) | EC50 (glucagon receptor; [1]) | EC50 (GLP-1 receptor; Table 1) | EC50 (GLP-1 receptor; [1]) | also measured |
| --- | --- | --- | --- | --- | --- |
| CCCCCCCCCCCCCCCC(=O)N[C@@H](CCC(=O)NCCCC[C@H](NC(=O)[C@H](CC(=O)O)NC(=O)[C@H](CO)NC(=O)[C@@H](NC(=O)[C@H](Cc1ccccc1)NC(=O)[C@@H](NC(=O)CNC(=O)[C@H](CCC(N)=O)NC(=O)C(C)(C)NC(=O)[C@@H](N)Cc1c[nH]cn1)[C@@H](C)O)[C@@H](C)O)C(=O)N[C@@H](CO)C(=O)N[C@@H](CCCCN)C(=O)N[C@@H](Cc1ccc(O)cc1)C(=O)N[C@@H](CC(C)C)C(=O)N[C@@H](CCC(=O)O)C(=O)N[C@@H](CCC(=O)O)C(=O)N[C@@H](CCCNC(=N)N)C(=O)N[C@@H](C)C(=O)N[C@@H](C)C(=O)N[C@@H](CCC(N)=O)C(=O)N[C@@H](CCC(=O)O)C(=O)N[C@@H](Cc1ccccc1)C(=O)N[C@H](C(=O)N[C@@H](CCC(N)=O)C(=O)N[C@@H](Cc1c[nH]c2ccccc12)C(=O)N[C@@H](CC(C)C)C(=O)N[C@@H](CC(C)C)C(=O)N[C@@H](CCC(=O)O)C(=O)NCC(=O)NCC(=O)N1CCC[C@H]1C(=O)N[C@@H](CO)C(=O)N[C@@H](CO)C(=O)NCC(=O)N[C@@H](C)C(=O)N1CCC[C@H]1C(=O)N1CCC[C@H]1C(=O)N1CCC[C@H]1C(=O)N[C@@H](CO)C(N)=O)C(C)C)C(=O)O [compound 18] (H-H[Aib]QGTFTSDK([γGlu-Palmitoyl])SKYLEERAAQEFVQWLLEGGPSSGAPPPS-NH2) | 4 pM | 5 pM | 8 pM | 10 pM | EC50 (GIP receptor; [2]): 4 pM; EC50 (glucagon receptor; [2]): 5 pM |
| CCCCCCCCCCCCCCCC(=O)N[C@@H](CCC(=O)NCCCC[C@H](NC(=O)[C@H](CC(=O)O)NC(=O)[C@H](CO)NC(=O)[C@@H](NC(=O)[C@H](Cc1ccccc1)NC(=O)[C@@H](NC(=O)CNC(=O)[C@H](CCC(N)=O)NC(=O)C(C)(C)NC(=O)[C@@H](N)Cc1c[nH]cn1)[C@@H](C)O)[C@@H](C)O)C(=O)N[C@@H](CO)C(=O)N[C@@H](CCCCN)C(=O)N[C@@H](Cc1ccc(O)cc1)C(=O)N[C@@H](CC(C)C)C(=O)N[C@@H](CC(=O)O)C(=O)N[C@@H](CCC(=O)O)C(=O)N[C@@H](CCCNC(=N)N)C(=O)N[C@@H](C)C(=O)N[C@@H](C)C(=O)N[C@@H](Cc1c[nH]cn1)C(=O)N[C@@H](CC(=O)O)C(=O)N[C@@H](Cc1ccccc1)C(=O)N[C@H](C(=O)N[C@@H](CCC(N)=O)C(=O)N[C@@H](Cc1c[nH]c2ccccc12)C(=O)N[C@@H](CC(C)C)C(=O)N[C@@H](CC(C)C)C(=O)N[C@@H](CC(=O)O)C(=O)NCC(=O)NCC(=O)N1CCC[C@H]1C(=O)N[C@@H](CO)C(=O)N[C@@H](CO)C(=O)NCC(=O)N[C@@H](C)C(=O)N1CCC[C@H]1C(=O)N1CCC[C@H]1C(=O)N1CCC[C@H]1C(=O)N[C@@H](CO)C(N)=O)C(C)C)C(=O)O [compound 19] (H-H[Aib]QGTFTSDK([γGlu-Palmitoyl])SKYLDERAAHDFVQWLLDGGPSSGAPPPS-NH2) | 15 pM | 12 pM | – | 18 pM | – |
| CCCCCCCCCCCCCCCC(=O)N[C@@H](CCC(=O)NCCCC[C@H](NC(=O)[C@H](CC(=O)O)NC(=O)[C@H](CO)NC(=O)[C@@H](NC(=O)[C@H](Cc1ccccc1)NC(=O)[C@@H](NC(=O)CNC(=O)[C@H](CCC(N)=O)NC(=O)C(C)(C)NC(=O)[C@@H](N)Cc1c[nH]cn1)[C@@H](C)O)[C@@H](C)O)C(=O)N[C@@H](CO)C(=O)N[C@@H](CCCCN)C(=O)N[C@@H](Cc1ccc(O)cc1)C(=O)N[C@@H](CC(C)C)C(=O)N[C@@H](CC(=O)O)C(=O)N[C@@H](CCC(=O)O)C(=O)N[C@@H](CCCNC(=N)N)C(=O)N[C@@H](C)C(=O)N[C@@H](C)C(=O)N[C@@H](CCCCN)C(=O)N[C@@H](CC(=O)O)C(=O)N[C@@H](Cc1ccccc1)C(=O)N[C@H](C(=O)N[C@@H](CCC(N)=O)C(=O)N[C@@H](Cc1c[nH]c2ccccc12)C(=O)N[C@@H](CC(C)C)C(=O)N[C@@H](CC(C)C)C(=O)N[C@@H](CC(=O)O)C(=O)NCC(=O)NCC(=O)N1CCC[C@H]1C(=O)N[C@@H](CO)C(=O)N[C@@H](CO)C(=O)NCC(=O)N[C@@H](C)C(=O)N1CCC[C@H]1C(=O)N1CCC[C@H]1C(=O)N1CCC[C@H]1C(=O)N[C@@H](CO)C(N)=O)C(C)C)C(=O)O [compound 20] (H-H[Aib]QGTFTSDK([γGlu-Palmitoyl])SKYLDERAAKDFVQWLLDGGPSSGAPPPS-NH2; N-terminus assumed) | 5 pM | 6 pM | – | 10 pM | – |
| CCCCCCCCCCCCCCCC(=O)N[C@@H](CCC(=O)NCCCC[C@H](NC(=O)[C@H](CC(=O)O)NC(=O)[C@H](CO)NC(=O)[C@@H](NC(=O)[C@H](Cc1ccccc1)NC(=O)[C@@H](NC(=O)CNC(=O)[C@H](CCC(N)=O)NC(=O)C(C)(C)NC(=O)[C@@H](N)Cc1c[nH]cn1)[C@@H](C)O)[C@@H](C)O)C(=O)N[C@@H](CO)C(=O)N[C@@H](CCCCN)C(=O)N[C@@H](Cc1ccc(O)cc1)C(=O)N[C@@H](CC(C)C)C(=O)N[C@@H](CC(=O)O)C(=O)N[C@@H](CCC(=O)O)C(=O)N[C@@H](CCCNC(=N)N)C(=O)N[C@@H](C)C(=O)N[C@@H](C)C(=O)NC(C)(C)C(=O)N[C@@H](CCC(=O)O)C(=O)N[C@@H](Cc1ccccc1)C(=O)N[C@H](C(=O)N[C@@H](CCC(N)=O)C(=O)N[C@@H](Cc1c[nH]c2ccccc12)C(=O)N[C@@H](CC(C)C)C(=O)N[C@@H](CC(C)C)C(=O)N[C@@H](CC(=O)O)C(=O)NCC(=O)NCC(=O)N1CCC[C@H]1C(=O)N[C@@H](CO)C(=O)N[C@@H](CO)C(=O)NCC(=O)N[C@@H](C)C(=O)N1CCC[C@H]1C(=O)N1CCC[C@H]1C(=O)N1CCC[C@H]1C(=O)N[C@@H](CO)C(N)=O)C(C)C)C(=O)O [compound 21] (H-H[Aib]QGTFTSDK([γGlu-Palmitoyl])SKYLDERAA[Aib]EFVQWLLDGGPSSGAPPPS-NH2; N-terminus assumed) | 1 pM | 2 pM | – | 4 pM | – |
| CCCCCCCCCCCCCCCC(=O)N[C@@H](CCC(=O)NCCCC[C@H](NC(=O)[C@H](CC(=O)O)NC(=O)[C@H](CO)NC(=O)[C@@H](NC(=O)[C@H](Cc1ccccc1)NC(=O)[C@@H](NC(=O)CNC(=O)[C@H](CCC(N)=O)NC(=O)C(C)(C)NC(=O)[C@@H](N)Cc1c[nH]cn1)[C@@H](C)O)[C@@H](C)O)C(=O)N[C@@H](CO)C(=O)N[C@@H](CCCCN)C(=O)N[C@@H](Cc1ccc(O)cc1)C(=O)N[C@@H](CC(C)C)C(=O)N[C@@H](CC(=O)O)C(=O)N[C@@H](C)C(=O)N[C@@H](CCCNC(=N)N)C(=O)N[C@@H](C)C(=O)N[C@@H](C)C(=O)NC(C)(C)C(=O)N[C@@H](CCC(=O)O)C(=O)N[C@@H](Cc1ccccc1)C(=O)N[C@H](C(=O)N[C@@H](CCC(N)=O)C(=O)N[C@@H](Cc1c[nH]c2ccccc12)C(=O)N[C@@H](CC(C)C)C(=O)N[C@@H](CC(C)C)C(=O)N[C@@H](CC(=O)O)C(=O)NCC(=O)NCC(=O)N1CCC[C@H]1C(=O)N[C@@H](CO)C(=O)N[C@@H](CO)C(=O)NCC(=O)N[C@@H](C)C(=O)N1CCC[C@H]1C(=O)N1CCC[C@H]1C(=O)N1CCC[C@H]1C(=O)N[C@@H](CO)C(N)=O)C(C)C)C(=O)O [compound 22] (H-H[Aib]QGTFTSDK([γGlu-Palmitoyl])SKYLDARAA[Aib]EFVQWLLDGGPSSGAPPPS-NH2) | 4 pM | 5 pM | – | 11 pM | – |
| CCCCCCCCCCCCCCCC(=O)N[C@@H](CCC(=O)NCCCC[C@H](NC(=O)[C@H](CC(=O)O)NC(=O)[C@H](CO)NC(=O)[C@@H](NC(=O)[C@H](Cc1ccccc1)NC(=O)[C@@H](NC(=O)CNC(=O)[C@H](CCC(=O)O)NC(=O)C(C)(C)NC(=O)[C@@H](N)Cc1c[nH]cn1)[C@@H](C)O)[C@@H](C)O)C(=O)N[C@@H](CO)C(=O)N[C@@H](CCCCN)C(=O)N[C@@H](Cc1ccc(O)cc1)C(=O)N[C@@H](CC(C)C)C(=O)N[C@@H](CC(=O)O)C(=O)N[C@@H](CCC(=O)O)C(=O)N[C@@H](CCCNC(=N)N)C(=O)N[C@@H](C)C(=O)N[C@@H](C)C(=O)N[C@@H](CCC(N)=O)C(=O)N[C@@H](CC(=O)O)C(=O)N[C@@H](Cc1ccccc1)C(=O)N[C@H](C(=O)N[C@@H](CCC(N)=O)C(=O)N[C@@H](Cc1c[nH]c2ccccc12)C(=O)N[C@@H](CC(C)C)C(=O)N[C@@H](CC(C)C)C(=O)N[C@@H](CCC(=O)O)C(=O)NCC(=O)NCC(=O)N1CCC[C@H]1C(=O)N[C@@H](CO)C(=O)N[C@@H](CO)C(=O)NCC(=O)N[C@@H](C)C(=O)N1CCC[C@H]1C(=O)N1CCC[C@H]1C(=O)N1CCC[C@H]1C(=O)N[C@@H](CO)C(N)=O)C(C)C)C(=O)O [compound 44] (H-H[Aib]EGTFTSDK([γGlu-Palmitoyl])SKYLDERAAQDFVQWLLEGGPSSGAPPPS-NH2) | – | – | 7 pM | – | – |
| H-H[Aib]QGTFTSDYSKYLEERAAQDFVQWLLDGGPSSGAPPPSK([γGlu-γGlu-Palmitoyl])G-NH2 [compound 15] | – | – | 3 pM | – | EC50 (glucagon receptor; Table 1): 5 pM |
| H-H[Aib]QGTFTSEYSKYLDERAAQDFVQWLLDGGPSSGAPPPSK([γGlu-γGlu-Palmitoyl])G-NH2 [compound 16] | – | – | 2 pM | – | – |
| H[Aib]QGTFTSDYAKYLDERAAQDFVQWLLDGGPSSGAPPPSK([γGlu-γGlu-Palmitoyl])G-NH2 [compound 17] | – | – | 8 pM | – | EC50 (GIP receptor; Table 1): 20 pM |
